# Laboratory results as given in US20100267561A1, “HERBICIDAL PYRIDAZINONE DERIVATIVES” (priority 2007, published 2010).
# Tests used:
# Format in all cases: in vivo
# [1] = tested on: itchgrass (Rottboellia cochinchinensis); assay: Test E pre-/postemergence plant response; details: scale 0 to 100
# Text: (§1) Seeds of plant species selected from bermudagrass (Cynodon dactylon), Surinam grass (Brachiaria decumbens), large crabgrass (Digitaria sanguinalis), green foxtail (Setaria viridis), goosegrass (Eleusine indica), johnsongrass (Sorghum halepense), kochia (Kochia scoparia), pitted morningglory (Ipomoea lacunosa), purple nutsedge (Cyperus rotundus), common ragweed (Ambrosia elation), black mustard (Brassica nigra), guineagrass (Panicum maximum), dallisgrass (Paspalum dilatatum), barnyardgrass (Echinochloa crus-galli), southern (S.) sandbur (Cenchrus echinatus), common sowthistle (Sonchus oleraceous), prickly sida (Sida spinosa), Italian ryegrass (Lolium multiflorum), common purslane (Portulaca oleracea), broadleaf signalgrass (Brachiaria platyphylla), common groundsel (Senecio vulgaris), common chickweed (Stellaria media), Virginia (V.) dayflower (Commelina virginica), tropical (T.) spiderwort (Commelina benghalensis), annual bluegrass (Poa annua), naked crabgrass (Digitaria nuda), itchgrass (Rottboellia cochinchinensis), quackgrass (Elytrigia repens), Canada horseweed (Conyza canadensis), field bindweed (Convolvulus arvensis), spanishneedles (Bidens bipinnata), common mallow (Malva sylvestris) and Russian thistle (Salsola kali) were planted and treated preemergence with test chemicals formulated in a non-phytotoxic solvent mixture which included a surfactant. At the same time, plants selected from these weed species were treated with postemergence applications of some of the test chemicals formulated in the same manner. Plants ranged in height from 2 to 18 cm (1- to 4-leaf stage) for postemergence treatments.
# (§2) Treated plants and controls were maintained in a greenhouse for 14 to 21 days, after which time all species were compared to controls and visually evaluated. Plant response ratings, summarized in Table E, are based on a scale of 0 to 100 where 0 is no effect and 100 is complete control. A dash (-) response means no test result.
# [2] = tested on: common groundsel (Senecio vulgaris); assay: Test E pre-/postemergence plant response; details: Postemergence, scale 0 to 100
# Text: as §1, §2
# [3] = tested on: black mustard (Brassica nigra); assay: Test E pre-/postemergence plant response; details: scale 0 to 100
# Text: as §1, §2
# [4] = tested on: naked crabgrass (Digitaria nuda); assay: Test E pre-/postemergence plant response; details: scale 0 to 100
# Text: as §1, §2
# [5] = tested on: bermudagrass (Cynodon dactylon); assay: Test E pre-/postemergence plant response; details: scale 0 to 100
# Text: as §1, §2
# [6] = tested on: purple nutsedge (Cyperus rotundus); assay: Test E pre-/postemergence plant response; details: scale 0 to 100
# Text: as §1, §2
# [7] = tested on: common purslane (Portulaca oleracea); assay: Test E pre-/postemergence plant response; details: scale 0 to 100
# Text: as §1, §2
# [8] = tested on: goosegrass (Eleusine indica); assay: Test E pre-/postemergence plant response; details: scale 0 to 100
# Text: as §1, §2
# [9] = tested on: southern (S.) sandbur (Cenchrus echinatus); assay: Test E pre-/postemergence plant response; details: scale 0 to 100
# Text: as §1, §2
# [10] = tested on: annual bluegrass (Poa annua); assay: Test E pre-/postemergence plant response; details: scale 0 to 100
# Text: as §1, §2
# [11] = tested on: spring wheat (Triticum aestivum); assay: Test C pre-/postemergence plant response; details: Preemergence
# In short: (§3)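 Plant response was judged by eye against untreated controls following 15 to 25 days in a controlled growth environment, using 0 for no effect and 100 for complete control. Treatments were made both preemergence and postemergence, the latter on plants of 1- to 4-leaf stage.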
# [12] = tested on: pigweed (Amaranthus retroflexus); assay: Test C pre-/postemergence plant response; details: Preemergence
# In short: as §3
# [13] = 8 g ai/ha, scale 0 to 100 (0 no effect, 100 complete control)
# [14] = 31 g ai/ha, scale 0 to 100 (0 no effect, 100 complete control)
# [15] = 62 g ai/ha, scale 0 to 100, 0 no effect, 100 complete control
structure (smiles),measurement,setting,value
Cc1cc(-c2ccc(Cl)cc2)nn1-c1c(OS(=O)(=O)c2ccccc2)cnn(C)c1=O [Compound 35],"Plant response rating, Itchgrass","[1]; 16 g ai/ha, Preemergence",75
same,"Plant response rating, Itchgrass","[1]; 31 g ai/ha, Preemergence",75
same,"Plant response rating, Itchgrass","[1]; 62 g ai/ha, Preemergence",75
same,"Plant response rating, Itchgrass","[1]; Postemergence, 8 g ai/ha",30
same,"Plant response rating, Itchgrass","[1]; Postemergence, 16 g ai/ha",40
same,"Plant response rating, Itchgrass","[1]; Postemergence, 31 g ai/ha",70
same,"Plant response rating, Itchgrass","[1]; Postemergence, 62 g ai/ha",70
same,"Plant response rating, Groundsel",[2]; 8 g ai/ha,0
same,"Plant response rating, Groundsel",[2]; 16 g ai/ha,0
same,"Plant response rating, Mustard, Black","[3]; 8 g ai/ha, Preemergence",0
same,"Plant response rating, Mustard, Black","[3]; 16 g ai/ha, Preemergence",0
same,"Plant response rating, Mustard, Black","[3]; 31 g ai/ha, Preemergence",0
same,"Plant response rating, Mustard, Black","[3]; 62 g ai/ha, Preemergence",0
same,"Plant response rating, Mustard, Black","[3]; Postemergence, 8 g ai/ha",0
same,"Plant response rating, Mustard, Black","[3]; Postemergence, 16 g ai/ha",0
same,"Plant response rating, Mustard, Black","[3]; Postemergence, 31 g ai/ha",0
same,"Plant response rating, Mustard, Black","[3]; Postemergence, 62 g ai/ha",0
same,"Plant response rating, Crabgrass, Naked","[4]; 8 g ai/ha, Preemergence",75
same,"Plant response rating, Crabgrass, Naked","[4]; 16 g ai/ha, Preemergence",98
same,"Plant response rating, Crabgrass, Naked","[4]; 31 g ai/ha, Preemergence",100
same,"Plant response rating, Crabgrass, Naked","[4]; 62 g ai/ha, Preemergence",100
same,"Plant response rating, Crabgrass, Naked","[4]; Postemergence, 8 g ai/ha",50
same,"Plant response rating, Crabgrass, Naked","[4]; Postemergence, 16 g ai/ha",50
same,"Plant response rating, Crabgrass, Naked","[4]; Postemergence, 31 g ai/ha",95
same,"Plant response rating, Crabgrass, Naked","[4]; Postemergence, 62 g ai/ha",95
same,"Plant response rating, Bermudagrass","[5]; 8 g ai/ha, Preemergence",60
same,"Plant response rating, Bermudagrass","[5]; 16 g ai/ha, Preemergence",80
same,"Plant response rating, Bermudagrass","[5]; 31 g ai/ha, Preemergence",98
same,"Plant response rating, Bermudagrass","[5]; 62 g ai/ha, Preemergence",100
same,"Plant response rating, Bermudagrass","[5]; Postemergence, 8 g ai/ha",35
same,"Plant response rating, Bermudagrass","[5]; Postemergence, 16 g ai/ha",65
same,"Plant response rating, Bermudagrass","[5]; Postemergence, 31 g ai/ha",80
same,"Plant response rating, Bermudagrass","[5]; Postemergence, 62 g ai/ha",90
same,"Plant response rating, Nutsedge, Purple","[6]; 16 g ai/ha, Preemergence",0
same,"Plant response rating, Nutsedge, Purple","[6]; 62 g ai/ha, Preemergence",0
same,"Plant response rating, Nutsedge, Purple","[6]; Postemergence, 8 g ai/ha",0
same,"Plant response rating, Nutsedge, Purple","[6]; Postemergence, 16 g ai/ha",0
same,"Plant response rating, Nutsedge, Purple","[6]; Postemergence, 31 g ai/ha",0
same,"Plant response rating, Nutsedge, Purple","[6]; Postemergence, 62 g ai/ha",0
same,"Plant response rating, Purslane","[7]; 16 g ai/ha, Preemergence",0
same,"Plant response rating, Purslane","[7]; 31 g ai/ha, Preemergence",0
same,"Plant response rating, Purslane","[7]; 62 g ai/ha, Preemergence",0
same,"Plant response rating, Purslane","[7]; Postemergence, 8 g ai/ha",0
same,"Plant response rating, Purslane","[7]; Postemergence, 16 g ai/ha",0
same,"Plant response rating, Purslane","[7]; Postemergence, 31 g ai/ha",0
same,"Plant response rating, Purslane","[7]; Postemergence, 62 g ai/ha",0
same,"Plant response rating, Goosegrass","[8]; 8 g ai/ha, Preemergence",20
same,"Plant response rating, Goosegrass","[8]; 16 g ai/ha, Preemergence",75
same,"Plant response rating, Goosegrass","[8]; 31 g ai/ha, Preemergence",100
same,"Plant response rating, Goosegrass","[8]; 62 g ai/ha, Preemergence",100
same,"Plant response rating, Goosegrass","[8]; Postemergence, 8 g ai/ha",30
same,"Plant response rating, Goosegrass","[8]; Postemergence, 16 g ai/ha",30
same,"Plant response rating, Goosegrass","[8]; Postemergence, 31 g ai/ha",40
same,"Plant response rating, Goosegrass","[8]; Postemergence, 62 g ai/ha",75
same,"Plant response rating, Sandbur, S.","[9]; 16 g ai/ha, Preemergence",75
same,"Plant response rating, Sandbur, S.","[9]; 31 g ai/ha, Preemergence",90
same,"Plant response rating, Sandbur, S.","[9]; 62 g ai/ha, Preemergence",100
same,"Plant response rating, Sandbur, S.","[9]; Postemergence, 8 g ai/ha",40
same,"Plant response rating, Sandbur, S.","[9]; Postemergence, 16 g ai/ha",75
same,"Plant response rating, Sandbur, S.","[9]; Postemergence, 31 g ai/ha",75
same,"Plant response rating, Sandbur, S.","[9]; Postemergence, 62 g ai/ha",75
same,"Plant response rating, Bluegrass","[10]; 8 g ai/ha, Preemergence",0
same,"Plant response rating, Bluegrass","[10]; 16 g ai/ha, Preemergence",0
same,"Plant response rating, Bluegrass","[10]; 31 g ai/ha, Preemergence",0
same,"Plant response rating, Bluegrass","[10]; 62 g ai/ha, Preemergence",0
same,"Plant response rating, Bluegrass","[10]; Postemergence, 8 g ai/ha",0
same,"Plant response rating, Bluegrass","[10]; Postemergence, 16 g ai/ha",0
same,"Plant response rating, Bluegrass","[10]; Postemergence, 31 g ai/ha",0
same,"Plant response rating, Bluegrass","[10]; Postemergence, 62 g ai/ha",0
same,"Plant response rating, Wheat, Spring",[11]; [13],0
same,"Plant response rating, Wheat, Spring","[11]; 16 g ai/ha, scale 0 to 100 (0 no effect, 100 complete control)",20
same,"Plant response rating, Wheat, Spring",[11]; [14],50
same,"Plant response rating, Wheat, Spring",[11]; [15],65
same,"Plant response rating, Pigweed",[12]; [13],0
same,"Plant response rating, Pigweed",[12]; [14],0
same,"Plant response rating, Pigweed",[12]; [15],0
